Data from patent US20050112573A1, “Method of detecting toxic substance” (priority 2001, published 2005).

Tested on: yeast genes (level of expressed mRNA)
Assay: DNA chip analysis of expressed mRNA of yeast genes after 2 h culture with a toxic chemical substance
Format: cell-based, Saccharomyces cerevisiae S288C
Procedure: Yeast (Saccharomyces cerevtisiae S288C (α SUC2mal mel gap2 CUP1)) were cultured at 25° C. on YPD medium (yeast extract 1%, polypepton 2%, glucose 2%). One of toxic chemical substances was added to the cell at logarithmic growth phase, and the cell was further cultured for two hours. Cell was cultured without any chemical substance in the same condition, and was used as control. Concentrations of the chemical substances were defined to inhibit the growth of the yeast but not lead to death.
After the completion of cultivation, the culture was centrifuged to collect the cells. To the cells, sodium acetate buffer (50 mM sodium acetate, 10 mM EDTA, 1% SDS) was added, and the mixture was shaken at 65° C. for five minutes, followed by returning to room temperature, and obtaining the supernatant, which procedure was repeated two times. To the supernatant, ½ amount of a solution of phenol/chloroform was added, and the mixture was centrifuged to give a supernatant, which was added with an equal amount of chloroform, and the mixture was centrifuged to give a supernatant. To the supernatant, an equal amount of isopropanol containing 0.3 M sodium acetate was added, and the mixture was allowed to stand at room temperature for 30 minutes, after which the mixture was centrifuged to give a sediment of the whole RNAs. Seventy % ethanol was added to the sediment, and the mixture was again centrifuged to give a sediment, which was then dried and dissolved in water. mRNA was isolated from the whole RNAs as followings. In view of the fact that a poly A chain is attached to the 3′ terminus of mRNA, a polynucleotide having a poly T structure which was immobilized on the surface of latex beads was used to trap the mRNA, and then the mRNA was washed and eluted with spine column (Oligotex-dT30<Super>mRNA Purification Kit, Takara). Reverse transcription of the mRNA was conducted with a reverse transcriptase (Super Script II Reverse Transcriptase; catalogue No. 18064-014, GibcoBRL) using fluorescence-labeled nucleotides to give cDNAs that were introduced with Cy3-dUTP or Cy5-dUTP during the reverse transcription.
The labeled cDNAs were dissolved in TE buffer (10 mM Tris-HCl/1 mM EDTA, pH8.0), and the solution was dropped on the DNA chip containing the whole genes of yeast (DNA Chip Research Inc. Japan) so that the cDNAs were hybridized on the DNA chip at 65° C. for over 12 hours. The fluoresces intensity of the DNA chip was read with a scanner, and the ratio relative to the fluorescence intensity resulting from the absence of chemical substance was estimated as the following, which is shown in Tables 1 to 9: [formula]
In the Tables, “Intensity” indicated in the rightmost column is a value of the level of expressed mRNA of each gene in control cells as divided by the average level of the expressions of the whole genes.

CN(C)C(=S)SSC(=S)N(C)C [(10), Tetramethylthiuram disulfide]
The level of expressed mRNA in the presence of chemical substance/The level of expressed mRNA in the absence of chemical substance (yeast gene YKL013C): 1.4
The level of expressed mRNA in the presence of chemical substance/The level of expressed mRNA in the absence of chemical substance (yeast gene YKL039W): 3.3
The level of expressed mRNA in the presence of chemical substance/The level of expressed mRNA in the absence of chemical substance (yeast gene YKL041W): 1.5
The level of expressed mRNA in the presence of chemical substance/The level of expressed mRNA in the absence of chemical substance (yeast gene YKL096W): 0.5
The level of expressed mRNA in the presence of chemical substance/The level of expressed mRNA in the absence of chemical substance (yeast gene YKL165C): 0.4
The level of expressed mRNA in the presence of chemical substance/The level of expressed mRNA in the absence of chemical substance (yeast gene YKL193C): 1.6
The level of expressed mRNA in the presence of chemical substance/The level of expressed mRNA in the absence of chemical substance (yeast gene YLR120C): 1.6
The level of expressed mRNA in the presence of chemical substance/The level of expressed mRNA in the absence of chemical substance (yeast gene YLR136C): 6.0
The level of expressed mRNA in the presence of chemical substance/The level of expressed mRNA in the absence of chemical substance (yeast gene YLR178C): 4.1
The level of expressed mRNA in the presence of chemical substance/The level of expressed mRNA in the absence of chemical substance (yeast gene YLR250W): 2.4
The level of expressed mRNA in the presence of chemical substance/The level of expressed mRNA in the absence of chemical substance (yeast gene YLR327C): 8.3
The level of expressed mRNA in the presence of chemical substance/The level of expressed mRNA in the absence of chemical substance (yeast gene YLR356W): 1.6
The level of expressed mRNA in the presence of chemical substance/The level of expressed mRNA in the absence of chemical substance (yeast gene YLR362W): 3.3
The level of expressed mRNA in the presence of chemical substance/The level of expressed mRNA in the absence of chemical substance (yeast gene YLR391W): 0.7
The level of expressed mRNA in the presence of chemical substance/The level of expressed mRNA in the absence of chemical substance (yeast gene YLR429W): 1.3
The level of expressed mRNA in the presence of chemical substance/The level of expressed mRNA in the absence of chemical substance (yeast gene YMR004W): 3.4
The level of expressed mRNA in the presence of chemical substance/The level of expressed mRNA in the absence of chemical substance (yeast gene YMR094W): 0.9
The level of expressed mRNA in the presence of chemical substance/The level of expressed mRNA in the absence of chemical substance (yeast gene YMR104C): 3.2
The level of expressed mRNA in the presence of chemical substance/The level of expressed mRNA in the absence of chemical substance (yeast gene YMR219W): 0.9
The level of expressed mRNA in the presence of chemical substance/The level of expressed mRNA in the absence of chemical substance (yeast gene YMR226C): 2.2
The level of expressed mRNA in the presence of chemical substance/The level of expressed mRNA in the absence of chemical substance (yeast gene YMR275C): 2.1
The level of expressed mRNA in the presence of chemical substance/The level of expressed mRNA in the absence of chemical substance (yeast gene YMR276W): 1.7
The level of expressed mRNA in the presence of chemical substance/The level of expressed mRNA in the absence of chemical substance (yeast gene YMR314W): 2.7
The level of expressed mRNA in the presence of chemical substance/The level of expressed mRNA in the absence of chemical substance (yeast gene YNL006W): 4.0
The level of expressed mRNA in the presence of chemical substance/The level of expressed mRNA in the absence of chemical substance (yeast gene YNL007C): 1.7
The level of expressed mRNA in the presence of chemical substance/The level of expressed mRNA in the absence of chemical substance (yeast gene YNL093W): 2.0
The level of expressed mRNA in the presence of chemical substance/The level of expressed mRNA in the absence of chemical substance (yeast gene YNL333W): 2.1
The level of expressed mRNA in the presence of chemical substance/The level of expressed mRNA in the absence of chemical substance (yeast gene YNR010W): 0.9
The level of expressed mRNA in the presence of chemical substance/The level of expressed mRNA in the absence of chemical substance (yeast gene YNR069C): 5.8
The level of expressed mRNA in the presence of chemical substance/The level of expressed mRNA in the absence of chemical substance (yeast gene YOL013C): 1.0
The level of expressed mRNA in the presence of chemical substance/The level of expressed mRNA in the absence of chemical substance (yeast gene YOL164W): 3.6
The level of expressed mRNA in the presence of chemical substance/The level of expressed mRNA in the absence of chemical substance (yeast gene YOR036W): 1.9
The level of expressed mRNA in the presence of chemical substance/The level of expressed mRNA in the absence of chemical substance (yeast gene YOR117W): 1.8
The level of expressed mRNA in the presence of chemical substance/The level of expressed mRNA in the absence of chemical substance (yeast gene YOR124C): 1.9
The level of expressed mRNA in the presence of chemical substance/The level of expressed mRNA in the absence of chemical substance (yeast gene YOR132W): 1.6
The level of expressed mRNA in the presence of chemical substance/The level of expressed mRNA in the absence of chemical substance (yeast gene YOR157C): 2.6
The level of expressed mRNA in the presence of chemical substance/The level of expressed mRNA in the absence of chemical substance (yeast gene YOR181W): 0.5
The level of expressed mRNA in the presence of chemical substance/The level of expressed mRNA in the absence of chemical substance (yeast gene YOR185C): 2.9
The level of expressed mRNA in the presence of chemical substance/The level of expressed mRNA in the absence of chemical substance (yeast gene YOR198C): 1.4
The level of expressed mRNA in the presence of chemical substance/The level of expressed mRNA in the absence of chemical substance (yeast gene YOR259C): 1.5
The level of expressed mRNA in the presence of chemical substance/The level of expressed mRNA in the absence of chemical substance (yeast gene YOR261C): 2.5
The level of expressed mRNA in the presence of chemical substance/The level of expressed mRNA in the absence of chemical substance (yeast gene YOR288C): 1.0
The level of expressed mRNA in the presence of chemical substance/The level of expressed mRNA in the absence of chemical substance (yeast gene YOR355W): 0.8
The level of expressed mRNA in the presence of chemical substance/The level of expressed mRNA in the absence of chemical substance (yeast gene YOR383C): 4.5
The level of expressed mRNA in the presence of chemical substance/The level of expressed mRNA in the absence of chemical substance (yeast gene YPL089C): 2.5
The level of expressed mRNA in the presence of chemical substance/The level of expressed mRNA in the absence of chemical substance (yeast gene YPL109C): 1.5
The level of expressed mRNA in the presence of chemical substance/The level of expressed mRNA in the absence of chemical substance (yeast gene YPL149W): 3.7
The level of expressed mRNA in the presence of chemical substance/The level of expressed mRNA in the absence of chemical substance (yeast gene YPL154C): 1.7
The level of expressed mRNA in the presence of chemical substance/The level of expressed mRNA in the absence of chemical substance (yeast gene YPR103W): 2.0
The level of expressed mRNA in the presence of chemical substance/The level of expressed mRNA in the absence of chemical substance (yeast gene YPR108W): 2.8
